Literature values in patent US20220016310A1, “ANTIMICROBIAL SHAPE MEMORY POLYMERS” (THE TEXAS A&M UNIVERSITY SYSTEM, priority 2016, published 2022).

System: antibiotic-resistant bacteria (Enterobacter aerogenes, Escherichia coli, and Staphylococcus aureus)
Conditions: bacteria obtained from hospitals

O=C(O)C=Cc1ccccc1 [cinnamic acid]
Susceptibility of antibiotic-resistant bacteria: susceptible
